Assay results from patent US20220153734A1, “Pyrazolopyridine Compounds For IRE1 Inhibition” (Optikira, LLC, priority 2019, published 2022).

Tests used:
[1] = system: ARPE-19 cells stably expressing XBP1 (a.a. 1-376); experiment: Cellular XBP1 splicing assay (NanoLuc luciferase, thapsigargin); type: cell-based; details: Homo sapiens, ARPE-19, 4 h, thapsigargin 150 nM
Summary of the method: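 ARPE-19 cells carrying an XBP1(1-376)-NanoLuc splicing reporter were pretreated with compound (10-point ½-log series, 0.117% DMSO) for 30 min, then stressed with 150 nM thapsigargin for 4 h at 37° C. Luminescence was read, and IC50 values came from sigmoidal fits of percent inhibition of control.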

[2] = molecular target: T1, IRE1α (Homo sapiens, UniProt O75460); experiment: Biochemical assay: inhibition of RNase activity of IRE1α; details: enzyme 0.325 nM, substrate 100 nM, 20 minutes
T1 construct: purchased Signal Chem E31-11G
Summary of the method: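 Recombinant IRE1α (0.325 nM final) pre-incubated 30 min at room temperature with compounds (10-point ½-log series, duplicate, 4% DMSO final). Then 100 nM fluorophore/quencher-labelled RNA substrate added in 50 mM Tris, 0.5 mM MgCl2, 10 mM KCl, 2 mM DTT. Urea stop after 20 min; fluorescence read; IC50 from sigmoidal fit.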

[3] = molecular target: T1, IRE1α; experiment: Biochemical assay to detect inhibition of kinase activity of IRE1α (ADP-Glo)
Description: Biochemical Assays to Detect Inhibition of Kinase Activity of IRE1α
The kinase reactions were performed in 384 well white ProxiPlate-384 Plus plates (PERKIN Elmer 6008280) using 25 mM MOPS assay buffer with 1 mM dithiothreitol, 25 mM MgCl2, 12.5 mM β-glycerophosphate, 5 mM EGTA, and 50 μg/mL BSA. Test compounds were prepared on the day of assay and dispensed using D300 digital dispenser as a 10-point ½ log dilution series in duplicate, normalized to a final DMSO concentration of 3%. Test compounds were pre-incubated for 30 min at room temperature with 10 nM IRE1α kinase (E31-11G from Signal Chem) in 2.5 μL of assay buffer and the reaction started by addition of 2.5 μL of ATP in assay buffer, to give a final ATP concentration of 100 μM and 5 nM IRE1α kinase. After 4 hours incubation at room temperature the reactions were stopped and the kinase activity determined using the ADP-Glo™ reagent from Promega, according to the manufacturer's instructions. Luminescence was measured on a luminometer (EnVision, PerkinElmer) and IC50 values calculated by fitting a sigmoidal curve to percent inhibition of control versus Log10 of compound concentration.

T1 sequence (O75460 468-977 limits assumed): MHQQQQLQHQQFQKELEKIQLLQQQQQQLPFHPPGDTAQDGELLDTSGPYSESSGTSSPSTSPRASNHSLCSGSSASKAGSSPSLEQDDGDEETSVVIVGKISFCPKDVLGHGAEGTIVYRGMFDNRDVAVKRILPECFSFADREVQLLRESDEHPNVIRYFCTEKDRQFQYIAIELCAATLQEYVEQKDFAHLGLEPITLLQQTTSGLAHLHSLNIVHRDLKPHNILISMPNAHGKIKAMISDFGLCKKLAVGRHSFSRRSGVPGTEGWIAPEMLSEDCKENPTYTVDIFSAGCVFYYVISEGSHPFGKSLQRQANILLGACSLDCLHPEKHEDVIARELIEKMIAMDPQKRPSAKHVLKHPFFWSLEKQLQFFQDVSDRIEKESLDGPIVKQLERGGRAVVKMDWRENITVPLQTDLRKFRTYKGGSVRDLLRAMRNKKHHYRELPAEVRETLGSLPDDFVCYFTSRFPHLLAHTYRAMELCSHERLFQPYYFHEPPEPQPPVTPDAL

| IC50 [1] [nM] | IC50 [2] [nM] | IC50 [3] [nM] | Structure (SMILES) |
| --- | --- | --- | --- |
| 6.4 | 1.9 | 1.6 | CC(C)n1nc(-c2cc(F)c(NS(=O)(=O)Cc3ccccc3F)cc2F)c2c(N)ncc([C@H]3CC[C@H](NC4COC4)CC3)c21 [Compound A48, N-(4-(4-amino-1-isopropyl-7-((1r,4r)-4-(oxetan-3-ylamino)cyclohexyl)-1H-pyrazolo[4,3-c]pyridin-3-yl)-2,5-difluorophenyl)-1-(2-fluorophenyl)methanesulfonamide] |
| 4.3 | 6 | 2.1 | CC(C)n1nc(-c2cc(F)c(NS(=O)(=O)c3ccccc3Cl)cc2F)c2c(N)ncc([C@H]3CC[C@H](NC4COC4)CC3)c21 [Compound A49, N-(4-(4-amino-1-isopropyl-7-((1r,4r)-4-(oxetan-3-ylamino)cyclohexyl)-1H-pyrazolo[4,3-c]pyridin-3-yl)-2,5-difluorophenyl)-2-chlorobenzenesulfonamide] |
| 17 | 6.9 | 3.3 | CC(C)n1nc(-c2cc(F)c(NS(=O)(=O)c3ccccc3F)cc2F)c2c(N)ncc([C@H]3CC[C@H](NC4COC4)CC3)c21 [Compound A50, N-(4-(4-amino-1-isopropyl-7-((1r,4r)-4-(oxetan-3-ylamino)cyclohexyl)-1H-pyrazolo[4,3-c]pyridin-3-yl)-2,5-difluorophenyl)-2-fluorobenzenesulfonamide] |

The next lines start with the compound.

| Structure (SMILES) | IC50 [1] [nM] | IC50 [2] [nM] | IC50 [3] [nM] |
| --- | --- | --- | --- |
| CCn1nc(-c2cc(F)c(NS(=O)(=O)Cc3ccccc3Cl)cc2F)c2c(N)ncc([C@H]3CC[C@H](NC4COC4)CC3)c21 [Compound A42, N-(4-(4-amino-1-ethyl-7-((1r,4r)-4-(oxetan-3-ylamino)cyclohexyl)-1H-pyrazolo[4,3-c]pyridin-3-yl)-2,5-difluorophenyl)-1-(2-chlorophenyl)methanesulfonamide] | 19 | 3.2 | 3 |
| CCn1nc(-c2cc(F)c(NS(=O)(=O)Cc3ccccc3F)cc2F)c2c(N)ncc([C@H]3CC[C@H](NC4COC4)CC3)c21 [Compound A43, N-(4-(4-amino-1-ethyl-7-((1r,4r)-4-(oxetan-3-ylamino)cyclohexyl)-1H-pyrazolo[4,3-c]pyridin-3-yl)-2,5-difluorophenyl)-1-(2-fluorophenyl)methanesulfonamide] | 52 | 5.4 | 3.2 |
| CCn1nc(-c2cc(F)c(NS(=O)(=O)c3ccccc3Cl)cc2F)c2c(N)ncc([C@H]3CC[C@H](NC4COC4)CC3)c21 [Compound A44, N-(4-(4-amino-1-ethyl-7-((1r,4r)-4-(oxetan-3-ylamino)cyclohexyl)-1H-pyrazolo[4,3-c]pyridin-3-yl)-2,5-difluorophenyl)-2-chlorobenzenesulfonamide] | 31 | 8.2 | 2.8 |
| CCn1nc(-c2cc(F)c(NS(=O)(=O)c3ccccc3F)cc2F)c2c(N)ncc([C@H]3CC[C@H](NC4COC4)CC3)c21 [Compound A45, N-(4-(4-amino-1-ethyl-7-((1r,4r)-4-(oxetan-3-ylamino)cyclohexyl)-1H-pyrazolo[4,3-c]pyridin-3-yl)-2,5-difluorophenyl)-2-fluorobenzenesulfonamide] | 94 | 16 | 6.5 |
| CC(C)n1nc(-c2ccc(NS(=O)(=O)c3ccccc3F)c(F)c2)c2c(N)ncc([C@H]3CC[C@H](N(C)C4COC4)CC3)c21 [Compound A46] | 8.4 | 7.7 | 3.6 |
| CC(C)n1nc(-c2cc(F)c(NS(=O)(=O)Cc3ccccc3Cl)cc2F)c2c(N)ncc([C@H]3CC[C@H](NC4COC4)CC3)c21 [Compound A47, N-(4-(4-amino-1-isopropyl-7-((1r,4r)-4-(oxetan-3-ylamino)cyclohexyl)-1H-pyrazolo[4,3-c]pyridin-3-yl)-2,5-difluorophenyl)-1-(2-chlorophenyl)methanesulfonamide] | 5.6 | 1.3 | 2 |
